Entries after “also recorded” stand apart in the source; their conditions may differ.
Test system: patients diagnosed with herpes simplex virus (seizures associated with herpes simplex virus)
Experiment: Open label, expanded-access program: seizure frequency recorded by caregivers in a diary, change relative to baseline
Type: in vivo, human
Set-up: Reduction in myoclonic seizures over the treatment period / Reduction in absence seizures over the treatment period / Reduction in focal seizures with impairment over the treatment period / Reduction in tonic-clonic seizures over the treatment period / Reduction in atonic seizures over the treatment period / Reduction in tonic seizures over the treatment period: concentration or dose not given beside the values; Seizure frequency, tonic-clonic / Seizure frequency, myoclonic / Seizure frequency, absence / Seizure frequency, focal with impairment / Seizure frequency, tonic / Seizure frequency, focal without impairment / Seizure frequency, atonic: unit not given here
Details: for Seizure frequency, focal with impairment: baseline 14.0; for Seizure frequency, absence: baseline 28.0; for Seizure frequency, myoclonic: baseline 59.0; for Seizure frequency, tonic: baseline 24.0
Method: Subjects were required to be on one or more AEDs at stable doses for a minimum of two weeks prior to baseline and to have stable vagus nerve stimulation (VNS) settings and ketogenic diet ratios for a minimum of four weeks prior to baseline.
Modifications were made to concomitant AEDs as per clinical indication.
Seizure frequency, intensity, and duration were recorded by caregivers in a diary during a baseline period of at least 28 days. Changes in seizure frequency relative to baseline were calculated after at least 2 weeks and at defined timepoints of treatment.
Patients may be defined as responders if they had more than 50% reduction in seizure frequency compared to baseline. The percent change in seizure frequency was calculated as follows: […]
The percent change of seizure frequency may be calculated for any time interval where seizure number has been recorded. For the purpose of this example the percent change of seizure frequency for the end of the treatment period was calculated as follows: […]

[1] = Patient 4, treated for 24 weeks, vs baseline
[2] = Patient 5, 4 weeks, CBD 20.0 mg/kg/day
[3] = Patient 5, 8 weeks, CBD 25.0 mg/kg/day
[4] = Patient 5, 12 weeks, CBD 25.0 mg/kg/day
[5] = Patient 5, 16 weeks, CBD 25.0 mg/kg/day
[6] = Patient 5, 24 weeks, CBD 30.0 mg/kg/day
[7] = Patient 5, 36 weeks, CBD 40.0 mg/kg/day
[8] = Patient 5, 60 weeks, CBD 50.0 mg/kg/day
[9] = Patient 5, 72 weeks, CBD 50.0 mg/kg/day
[10] = Patient 5, 84 weeks, CBD 30.0 mg/kg/day
[11] = Patient 5, 96 weeks, CBD 45.0 mg/kg/day
[12] = Patient 5, 108 weeks, CBD 45.0 mg/kg/day
[13] = Patient 5, 120 weeks, CBD 45.0 mg/kg/day
[14] = Patient 5, 132 weeks, CBD 45.0 mg/kg/day
[15] = Patient 5, 144 weeks, CBD 45.0 mg/kg/day
[16] = Patient 5, treated for 144 weeks, vs baseline

SMILES: C=C(C)[C@@H]1CCC(C)=C[C@H]1c1c(O)cc(CCCCC)cc1O [CBD, cannabidiol]
- Seizure frequency, tonic-clonic (Patient 4, 16 weeks, CBD 15.0 mg/kg/day, baseline 10.0): 0.7
- Seizure frequency, focal with impairment (Patient 4, 16 weeks, CBD 15.0 mg/kg/day): 2.7
- Seizure frequency, atonic (Patient 4, 16 weeks, CBD 15.0 mg/kg/day, baseline 20.0): 14.0
- Seizure frequency, tonic-clonic (Patient 4, 24 weeks, CBD 15.0 mg/kg/day, baseline 10.0): 10.0
- Seizure frequency, focal with impairment (Patient 4, 24 weeks, CBD 15.0 mg/kg/day): 3.0
- Seizure frequency, atonic (Patient 4, 24 weeks, CBD 15.0 mg/kg/day, baseline 20.0): 13.0
- Reduction in atonic seizures over the treatment period [1]: 35%
- Reduction in focal seizures with impairment over the treatment period [1]: 78.6%
- Seizure frequency, absence [2]: 45.0
- Seizure frequency, myoclonic [2]: 75.0
- Seizure frequency, tonic-clonic (Patient 5, 4 weeks, CBD 20.0 mg/kg/day, baseline 71.0): 75.0
- Seizure frequency, atonic (Patient 5, 4 weeks, CBD 20.0 mg/kg/day, baseline 748.0): 965.0
- Seizure frequency, absence [3]: 0.0
- Seizure frequency, myoclonic [3]: 60.0
- Seizure frequency, tonic-clonic (Patient 5, 8 weeks, CBD 25.0 mg/kg/day, baseline 71.0): 7.0
- Seizure frequency, atonic (Patient 5, 8 weeks, CBD 25.0 mg/kg/day, baseline 748.0): 8.0
- Seizure frequency, absence [4]: 0.0
- Seizure frequency, myoclonic [4]: 1.0
- Seizure frequency, tonic-clonic (Patient 5, 12 weeks, CBD 25.0 mg/kg/day, baseline 71.0): 4.0
- Seizure frequency, atonic (Patient 5, 12 weeks, CBD 25.0 mg/kg/day, baseline 748.0): 25.0
- Seizure frequency, absence [5]: 0.0
- Seizure frequency, myoclonic [5]: 0.0
- Seizure frequency, tonic-clonic (Patient 5, 16 weeks, CBD 25.0 mg/kg/day, baseline 71.0): 10.0
- Seizure frequency, atonic (Patient 5, 16 weeks, CBD 25.0 mg/kg/day, baseline 748.0): 53.0
- Seizure frequency, absence [6]: 0.0
- Seizure frequency, myoclonic [6]: 68.0
- Seizure frequency, tonic-clonic (Patient 5, 24 weeks, CBD 30.0 mg/kg/day, baseline 71.0): 40.0
- Seizure frequency, absence [7]: 0.0
- Seizure frequency, myoclonic [7]: 129.0
- Seizure frequency, tonic-clonic (Patient 5, 36 weeks, CBD 40.0 mg/kg/day, baseline 71.0): 76.0
- Seizure frequency, atonic (Patient 5, 36 weeks, CBD 40.0 mg/kg/day, baseline 748.0): 44.0
- Seizure frequency, absence [8]: 0.0
- Seizure frequency, myoclonic [8]: 184.0
- Seizure frequency, tonic-clonic (Patient 5, 60 weeks, CBD 50.0 mg/kg/day, baseline 71.0): 137.0
- Seizure frequency, atonic (Patient 5, 60 weeks, CBD 50.0 mg/kg/day, baseline 748.0): 45.0
- Seizure frequency, absence [9]: 3.0
- Seizure frequency, myoclonic [9]: 141.0
- Seizure frequency, tonic-clonic (Patient 5, 72 weeks, CBD 50.0 mg/kg/day, baseline 71.0): 130.0
- Seizure frequency, atonic (Patient 5, 72 weeks, CBD 50.0 mg/kg/day, baseline 748.0): 46.3
- Seizure frequency, absence [10]: 5.7
- Seizure frequency, myoclonic [10]: 81.0
- Seizure frequency, tonic-clonic (Patient 5, 84 weeks, CBD 30.0 mg/kg/day, baseline 71.0): 77.0
- Seizure frequency, atonic (Patient 5, 84 weeks, CBD 30.0 mg/kg/day, baseline 748.0): 39.3
- Seizure frequency, absence [11]: 8.0
- Seizure frequency, myoclonic [11]: 41.0
- Seizure frequency, tonic-clonic (Patient 5, 96 weeks, CBD 45.0 mg/kg/day, baseline 71.0): 72.0
- Seizure frequency, atonic (Patient 5, 96 weeks, CBD 45.0 mg/kg/day, baseline 748.0): 97.0
- Seizure frequency, absence [12]: 11.0
- Seizure frequency, myoclonic [12]: 64.0
- Seizure frequency, tonic-clonic (Patient 5, 108 weeks, CBD 45.0 mg/kg/day, baseline 71.0): 53.0
- Seizure frequency, atonic (Patient 5, 108 weeks, CBD 45.0 mg/kg/day, baseline 748.0): 92.0
- Seizure frequency, absence [13]: 11.3
- Seizure frequency, myoclonic [13]: 53.0
- Seizure frequency, tonic-clonic (Patient 5, 120 weeks, CBD 45.0 mg/kg/day, baseline 71.0): 44.3
- Seizure frequency, atonic (Patient 5, 120 weeks, CBD 45.0 mg/kg/day, baseline 748.0): 72.3
- Seizure frequency, absence [14]: 18.8
- Seizure frequency, myoclonic [14]: 66.4
- Seizure frequency, tonic-clonic (Patient 5, 132 weeks, CBD 45.0 mg/kg/day, baseline 71.0): 40.4
- Seizure frequency, atonic (Patient 5, 132 weeks, CBD 45.0 mg/kg/day, baseline 748.0): 128.0
- Seizure frequency, absence [15]: 49.6
- Seizure frequency, myoclonic [15]: 78.0
- Seizure frequency, tonic-clonic (Patient 5, 144 weeks, CBD 45.0 mg/kg/day, baseline 71.0): 18.0
- Seizure frequency, atonic (Patient 5, 144 weeks, CBD 45.0 mg/kg/day, baseline 748.0): 78.4
- Reduction in atonic seizures over the treatment period [16]: 89.5%
- Reduction in tonic-clonic seizures over the treatment period [16]: 76.4%
- Seizure frequency, tonic (Patient 6, 2 weeks, CBD 5.0 mg/kg/day): 40.0
- Seizure frequency, tonic (Patient 6, 4 weeks, CBD 10.0 mg/kg/day): 20.0
- Seizure frequency, tonic (Patient 6, 8 weeks, CBD 20.0 mg/kg/day): 32.0
- Seizure frequency, tonic (Patient 6, 12 weeks, CBD 25.0 mg/kg/day): 12.0
- Seizure frequency, tonic (Patient 6, 24 weeks, CBD 25.0 mg/kg/day): 15.2
- Seizure frequency, tonic (Patient 6, 36 weeks, CBD 25.0 mg/kg/day): 15.2
- Seizure frequency, tonic (Patient 6, 48 weeks, CBD 25.0 mg/kg/day): 18.0
- Seizure frequency, tonic (Patient 6, 60 weeks, CBD 25.0 mg/kg/day): 19.2
- Reduction in tonic seizures over the treatment period (Patient 6, treated for 60 weeks, vs baseline): 20%
- Reductions in seizures over period of treatment, overall (all six patients, tonic, tonic-clonic, atonic, myoclonic, absence and focal seizures with impairment): 20-100%
- Benefit in patients with focal seizures with impairment (in words) (patients 1 and 4): significant benefit
- Effect on seizure frequency (in words) (six patients, tonic, tonic-clonic, atonic, myoclonic, absence and focal seizures with impairment): effective in reducing the frequency; also recorded: significantly reduce the number of seizures; also recorded: significant reduction

Reference: patent US20240033272A1, “USE OF C[…] THE TREATMENT OF SEIZURES ASSOCIATED WITH HERPES SIMPLEX VIRUS” (GW Research Limited, priority 2020, published 2024)
